Key:
Type in all cases: physicochemical
[1] = Release of geraniol from MIP polymers in lactic acid solutions; details: 200 mg/dl lactic acid, 24 hours; FIG. 8
Method: Loading of films with and Active Agent. The active agent geraniol was used for release studies. Once dry, 7 mm discs were carefully cut out using a standard stainless steel cork borer. The discs were lifted out and placed on a clean dish. For the loading, 100 mg of geraniol was weighed out and dissolved in 100 ml of 50% ethanol:distilled water, resulting in a final concentration of 1.0 mg/ml.
The mixture was vigorously mixed and sonicated for 5 minutes. In the meantime discs were arranged in a segmented plastic container and the geraniol solution gently pipetted onto the discs until they were fully covered. The container was tightly covered and left at room temperature overnight. The following day the geraniol solution was gently removed by pipette until the discs were visible. The discs were washed three times with water and placed on a clean foil and left to dry overnight.
Preparation of lactic acid solutions. […]
Incubation Study—Geraniol. […] The stop clock started and samples were taken (100 ul) into HPLC autosampler vials and the concentration of geraniol present was determined by injecting onto a C18 HPLC column and monitoring at a wavelength of 195 nm.
Assay for Geraniol. Geraniol concentration was quantified using an HPLC Diode array detector (DAD) at 195 nm. After blanking with water, samples were injected and the peak area of the geraniol peak recorded. […]

[2] = Loading of films with geraniol; details: lactic acid-triggered films, 7 mm discs
Method: Loading of films with and Active Agent. The active agent geraniol was used for release studies. Once dry, 7 mm discs were carefully cut out using a standard stainless steel cork borer. The discs were lifted out and placed on a clean dish. For the loading, 100 mg of geraniol was weighed out and dissolved in 100 ml of 50% ethanol:distilled water, resulting in a final concentration of 1.0 mg/ml. The mixture was vigorously mixed and sonicated for 5 minutes. In the meantime discs were arranged in a segmented plastic container and the geraniol solution gently pipetted onto the discs until they were fully covered. The container was tightly covered and left at room temperature overnight. The following day the geraniol solution was gently removed by pipette until the discs were visible. The discs were washed three times with water and placed on a clean foil and left to dry overnight.

[3] = Release of Nile Blue from MIP polymers in glucose solutions
Method: Loading of Films with Nile Blue For Release Studies. For dye loading, 50 mg of Nile Blue was weighed out and dissolved in 100 ml of distilled water, resulting in a final concentration of 0.5 mg/ml. The mixture was vigorously mixed and sonicated for 5 minutes. In the meantime discs were arranged in a segmented plastic container and the Nile Blue solution gently pipetted onto the discs until they were fully covered. The container was covered and left at room temperature overnight.
The following day the Nile Blue was gently removed by pipettes until the discs were visible. The discs were carefully removed and washed three times with water and then placed in a clean container and covered in water. The container was then placed on a hot plate set to 55° C. and left for three hours. The water was removed and the process repeated. At the end of six hours the discs were removed and placed on a clean foil and dried overnight at room temperature. The following day the discs were ready for study.
Preparation of glucose solutions. Glucose (200 mg) was weighed out and dissolved in 100 ml of water, resulting in a final concentration of 200 mg/dl.
Incubation—Nile Blue. The above solutions of glucose or lactic acid were used as triggers for Nile Blue release. 4 ml of each solution was placed into three petri dishes kept at room temperature. Stained discs were placed into each dish and the dish covered. Samples were taken (400 ul) into micro-cuvettes at specific time points and the concentration of Nile Blue present was determined by measuring the absorbance of the Nile Blue solutions at 625 nm.

| release of geraniol from MIP films [1] | loading of geraniol in MIP films [2] | release of Nile Blue from MIP films ([3]; films moved at 365 minutes from water to 200 mg/dl glucose, FIG. 5) | release of Nile Blue from MIP films ([3]; films moved at 450 minutes from glucose solution to fresh water, FIG. 6) | release of Nile Blue from MIP films ([3]; in water, about 5 hours) | release of Nile Blue from MIP films ([3]; increasing glucose concentration, FIG. 4) | Compound |
| --- | --- | --- | --- | --- | --- | --- |
| ~100% | approximately 145 μg per disc | – | – | – | – | CC(C)=CCC/C(C)=C/CO [Geraniol] |
| – | – | began almost immediately | stopped almost immediately | not showed any significant release | released in increasing amounts | CC[N+](CC)=c1ccc2nc3c(cc(N)c4ccccc43)oc-2c1 [Nile Blue] |

From patent US20100210835A1, “Mimetic Drug Delivery Systems for Release with Specific Molecular Triggers” (BOARD OF REGENTS, THE UNIVERSITY OF TEXAS SYSTEM, priority 2009, published 2010)
